Laboratory results as given in patent US6710047B2, “Phthalazines with angiogenesis inhibiting activity” (Novartis AG, priority 1997, dated 2004).
pIC50: −log10 of the molar value. Structures can show the parent of a compound that is named as a salt.

tested on: not given; assay: not given; settings: not given

Row | melting point | Compound
1 | 118 to 120 °C | COc1cccc(Nc2nnc(Cc3ccncc3)c3ccccc23)c1
2 | 190 °C (dec.) | C[C@@H](Nc1nnc(Cc2ccncc2)c2ccccc12)c1ccccc1.Cl.Cl
3 | 217 to 219 °C | Oc1cccc(Nc2nnc(Cc3ccncc3)c3ccccc23)c1
4 | 260 to 265 °C | CC(=O)Nc1ccc2c(Cc3ccncc3)nnc(Nc3ccc(Cl)cc3)c2c1.Cl
5 | 160 to 163 °C | COc1ccc(Nc2nnc(Cc3ccncc3)c3ccc(NC(C)=O)cc23)cc1.Cl
6 | 156 to 159 °C | COc1cccc(Nc2nnc(Cc3ccncc3)c3ccc(NC(C)=O)cc23)c1.Cl
7 | 162 to 166 °C | CC(=O)Nc1ccc2c(Cc3ccncc3)nnc(Nc3ccccc3)c2c1.Cl
8 | 196 to 200 °C | CC(C)(C)c1ccc(Nc2nnc(Cc3ccncc3)c3ccccc23)cc1.Cl.Cl
9 | 189 to 191 °C | c1ccc(-c2ccc(Nc3nnc(Cc4ccncc4)c4ccccc34)cc2)cc1
10 | 217 to 220 °C | Cl.Cl.c1ccc(Nc2nnc(Cc3ccncc3)c3ccccc23)cc1
11 | > 250 °C | CC(C)c1ccc(Nc2nnc(Cc3ccncc3)c3ccccc23)cc1 (as salt: hydrochloride) [Example 47, 1-(4-Isoprolylanilino)-4-(4-pyridylmethyl)phthalazine dihydrochloride]
12 | 192 to 195 °C | Cc1ccc(Nc2nnc(Cc3ccncc3)c3ccccc23)cc1O (hydrate or solvate) [Example 67B]
13 | 185 to 187 °C | FC(F)C(F)(F)Oc1cccc(Nc2nnc(Cc3ccncc3)c3ccccc23)c1 (hydrate or solvate) [Example 67S]
14 | 137 to 138 °C | c1ccc(CNc2nnc(Cc3ccncc3)c3ccccc23)cc1 [Example 7, 1-Benzylamino-4-(4-pyridylmethyl)phthalazine]
15 | 223 to 224 °C | COc1ccc(Nc2nnc(Cc3ccncc3)c3ccccc23)cc1 [Example 8, 1-(4-Methoxyanilino)-4-(4-pyridylmethyl)phthalazine]
16 | 142 to 143 °C | c1ccc(COc2cccc(Nc3nnc(Cc4ccncc4)c4ccccc34)c2)cc1 [Example 9, 1-(3-Benzyloxyanilino)-4-(4-pyridylmethyl)phthalazine]
17 | > 270 °C | CC(=O)Nc1ccc(Nc2nnc(Cc3ccncc3)c3ccccc23)cc1 [Example 11, 1-(4-Acetaminoanilino)-4-(4-pyridylmethyl)phthalazine]
18 | 190 to 191 °C | COc1ccccc1Nc1nnc(Cc2ccncc2)c2ccccc12 [Example 14, 1-(2-Methoxyanilino)-4-(4-pyridylmethyl)phthalazine]
19 | 137 to 139 °C | c1cncc(Nc2nnc(Cc3ccncc3)c3ccccc23)c1 [Example 15, 1-(3-Pyridylamino)-4-(4-pyridylmethyl)phthalazine]
20 | 205 to 206 °C | FC(F)(F)c1ccc(Nc2nnc(Cc3ccncc3)c3ccccc23)cc1 [Example 16, 1-(4-Trifluoromethylanilino)-4-(4-pyridylmethyl)phthalazine]
21 | 129 to 131 °C | Fc1ccc(Nc2nnc(Cc3ccncc3)c3ccccc23)cc1 [Example 17, 1-(4-Fluoroanilino)-4-(4-pyridylmethyl)phthalazine]
22 | 239 to 241 °C | Oc1ccc(Nc2nnc(Cc3ccncc3)c3ccccc23)cc1 [Example 19, 1-(4-Hydroxyanilino)-4-(4-pyridylmethyl)phthalazine]
23 | 249 to 251 °C | CS(=O)(=O)O.CS(=O)(=O)O.CS(=O)(=O)O.Nc1cccc(Nc2nnc(Cc3ccncc3)c3ccccc23)c1 [Example 20, 1-(3-Aminoanilino)-4-(4-pyridylmethyl)phthalazine trimesylate]
24 | 233 to 236 °C | Clc1ccc(Nc2nnc(NCc3ccncc3)c3ccccc23)cc1 [Example 49, 1-(4-Chloroanilino)-4-(4-pyridylmethylamino)phthalazine]
25 | 110 to 111 °C | COc1cc(Nc2nnc(Cc3ccncc3)c3ccccc23)cc(OC)c1OC [Example 54, 1-(3,4,5-Trimethoxyanilino)-4-(4-pyridylmethyl)phthalazine]
26 | 226 to 228 °C | [O-][n+]1nc(Nc2ccc(Cl)cc2)c2ccccc2c1Cc1ccncc1 [Example 55, 1-(4-Chloroanilino)-4-(4-pyridylmethyl)phthalazine-3-oxide]

target: T1, Flt-1 VEGF-receptor tyrosine kinase (Homo sapiens, UniProt P17948); assay: Test for activity against Flt-1 VEGF-receptor tyrosine kinase; settings: not given
T1 sequence (P17948 827-1158 limits assumed): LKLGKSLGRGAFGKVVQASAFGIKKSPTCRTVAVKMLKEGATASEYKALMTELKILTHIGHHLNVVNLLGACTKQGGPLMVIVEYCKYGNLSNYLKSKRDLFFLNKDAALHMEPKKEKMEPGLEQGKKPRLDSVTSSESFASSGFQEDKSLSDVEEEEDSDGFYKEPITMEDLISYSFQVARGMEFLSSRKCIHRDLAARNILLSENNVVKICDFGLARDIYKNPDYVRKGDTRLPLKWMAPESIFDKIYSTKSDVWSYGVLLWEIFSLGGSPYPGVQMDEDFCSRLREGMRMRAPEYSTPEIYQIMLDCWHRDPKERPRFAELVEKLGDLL

Row | pIC50 | Compound
27 | 6.68 | Clc1cccc(Nc2nnc(Cc3ccncc3)c3ccccc23)c1 [Example 5, 1-(3-Chloroanilino)-4-(4-pyridylmethyl)phthalazine 1,8 hydrochloride]
28 | 6.19 | c1ccc(CNc2nnc(Cc3ccncc3)c3ccccc23)cc1 [Example 7, 1-Benzylamino-4-(4-pyridylmethyl)phthalazine]
29 | 6.48 | COc1ccc(Nc2nnc(Cc3ccncc3)c3ccccc23)cc1 [Example 8, 1-(4-Methoxyanilino)-4-(4-pyridylmethyl)phthalazine]
30 | 6.01 | c1ccc(COc2cccc(Nc3nnc(Cc4ccncc4)c4ccccc34)c2)cc1 [Example 9, 1-(3-Benzyloxyanilino)-4-(4-pyridylmethyl)phthalazine]
31 | 6.13 | COc1ccccc1Nc1nnc(Cc2ccncc2)c2ccccc12 [Example 14, 1-(2-Methoxyanilino)-4-(4-pyridylmethyl)phthalazine]
32 | 6.28 | FC(F)(F)c1ccc(Nc2nnc(Cc3ccncc3)c3ccccc23)cc1 [Example 16, 1-(4-Trifluoromethylanilino)-4-(4-pyridylmethyl)phthalazine]
33 | 6.54 | Fc1ccc(Nc2nnc(Cc3ccncc3)c3ccccc23)cc1 [Example 17, 1-(4-Fluoroanilino)-4-(4-pyridylmethyl)phthalazine]
34 | 6.14 | Oc1ccc(Nc2nnc(Cc3ccncc3)c3ccccc23)cc1 [Example 19, 1-(4-Hydroxyanilino)-4-(4-pyridylmethyl)phthalazine]
35 | 6.30 | CS(=O)(=O)O.CS(=O)(=O)O.CS(=O)(=O)O.Nc1cccc(Nc2nnc(Cc3ccncc3)c3ccccc23)c1 [Example 20, 1-(3-Aminoanilino)-4-(4-pyridylmethyl)phthalazine trimesylate]
36 | 7.38 | Nc1ccc2c(Cc3ccncc3)nnc(Nc3ccc(Cl)cc3)c2c1 [Example 32A, 7-Amino-1-(4-chloroanilino)-4-(4-pyridylmethyl)phthalazine hydrochloride]
37 | 6.00 | Nc1ccc2c(Cc3ccncc3)nnc(Nc3cccc(Cl)c3)c2c1 [Example 32B]
38 | 6.32 | Cc1ccc(Nc2nnc(Cc3ccncc3)c3ccc(N)cc23)cc1 [Example 32D]
39 | 6.10 | COc1cccc(Nc2nnc(Cc3ccncc3)c3ccc(N)cc23)c1 [Example 32F]
40 | 6.73 | CC(C)c1ccc(Nc2nnc(Cc3ccncc3)c3ccccc23)cc1 [Example 47, 1-(4-Isoprolylanilino)-4-(4-pyridylmethyl)phthalazine dihydrochloride]
41 | 6.47 | Cc1ccc(Nc2nnc(Cc3ccncc3)c3ccccc23)cc1O [Example 67B]
42 | 6.48 | CC(C)c1cccc(Nc2nnc(Cc3ccncc3)c3ccccc23)c1 [Example 67Q]
43 | 5.92 | FC(F)C(F)(F)Oc1cccc(Nc2nnc(Cc3ccncc3)c3ccccc23)c1 [Example 67S]
44 | 6.00 | CC(=O)c1cccc(Nc2nnc(Cc3ccncc3)c3ccccc23)c1 [Example 70A, 1-(3-Acetylanilino)-4-(4-pyridylmethyl)phthalazine]
45 | 5.90 | Clc1cccc(Oc2nnc(Cc3ccncc3)c3ccccc23)c1 [Example 72A, 1-(3-Chlorophenoxy)-4-(4-pyridylmethyl)phthalazine]
46 | 6.32 | Cc1c(Cc2ccncc2)nnc(Nc2ccc(Cl)cc2)c1C [Example 82A, 3-(4-chloroanilino)-4,5-dimethyl-6-(pyridin-4-yl)methylpyridazine]
47 | 6.11 | Cc1ccc(Nc2nnc(Cc3ccncc3)c(C)c2C)cc1 [Example 82B, 3-(4-methylanilino)-4,5-dimethyl-6-(pyridin-4-yl)methylpyridazine]
48 | 5.60 | Cc1cccc(Nc2nnc(Cc3ccncc3)c(C)c2C)c1 [Example 82E, 3-(3-methylanilino)-4,5-dimethyl-6-(pyridin-4-yl)methylpyridazine]

same assay, conditions: kinase domain of Flt-1, poly(Glu,Tyr) 4:1, 8 μM [33P]-ATP, 15 minutes at room temperature

Row | pIC50 | Compound
49 | 6.04 | CC(c1ccncc1)c1nnc(Nc2ccc(Cl)cc2)c2ccccc12 (racemic) [Example 64, rac 1-(4-Chloroanilino) 4-[1-(4-pyridyl)ethyl]phthalazine]
50 | 6.00 | CC1(c2ccc(Nc3nnc(Cc4ccncc4)c4ccccc34)cc2)OCCO1 [Example 70B, 1-[(2′-methyl-1′,3′-dioxolan-2′-yl)-anilino]-4-(4-pyridylmethyl)phthalazine]
